From patent publication EP0067666A1, “Salts of antimicrobial naphthyridine and quinoline compounds and their production” (priority 1981, dated 1982)
In brackets after ≈: the same amount, converted by molar mass.

Legend:
[1] = system: Staphylococcus aureus UC-76; experiment: Acute mouse protection test; assay type: in vivo; details: single dose given at time of challenge, compound B series; for Single sc Dose PD50 (mg/kg) ± 95% Confidence Limits Staphylococcus aureus UC-76: subcutaneous
[2] = system: Escherichia coli Vogel; experiment: Acute mouse protection test; assay type: in vivo; details: single dose given at time of challenge; for Single sc Dose PD50 (mg/kg) ± 95% Confidence Limits Escherichia coli Vogel: subcutaneous
[3] = system: Pseudo. aeruginosa UI-18; experiment: Antibacterial activity, MIC; assay type: cell-based
[4] = system: Strep. faecalis MGH-2; experiment: Antibacterial activity, MIC; assay type: cell-based
[5] = system: Entero cloacae MA 2646; experiment: Antibacterial activity, MIC; assay type: cell-based
[6] = system: Proteus retgeri M 1771; experiment: Antibacterial activity, MIC; assay type: cell-based
[7] = system: Strep. pyogenes C-203; experiment: Antibacterial activity, MIC; assay type: cell-based
[8] = system: Strep. pneumoniae SV-1; experiment: Antibacterial activity, MIC; assay type: cell-based
[9] = system: Staph. aureus H 228; experiment: Antibacterial activity, MIC; assay type: cell-based
[10] = system: Staph. aureus UC-76; experiment: Antibacterial activity, MIC; assay type: cell-based
[11] = system: Klebs. pneumoniae MGH-2; experiment: Antibacterial activity, MIC; assay type: cell-based
[12] = system: E. coli Vogel; experiment: Antibacterial activity, MIC; assay type: cell-based
[13] = system: Klebsiella pneumoniae MGH-2; experiment: Acute mouse protection test; assay type: in vivo; details: single dose given at time of challenge; for Single sc Dose PD50 (mg/kg) ± 95% Confidence Limits Klebsiella pneumoniae MGH-2: subcutaneous
[14] = Lyophilization of the salts; assay type: physicochemical
From the text: The unpredictable characteristics of the salts prepared from Compounds A and B are clear from consideration of the results reported in Table 1. These characteristics were considered in view of the necessary requirements (a-f) outlined above for preparing a useful parenteral dosage form. […] From the data in Table 1, the lactate salts appear to be useful; however, lactic acid cannot be consistently obtained in a satisfactory grade in presently available commercial forms and is therefore not useful. The choline and sodium salts were ruled out based on the pH of their respective solutions.

| Compound | Single po Dose PD50 (mg/kg) ± 95% Confidence Limits Staphylococcus aureus UC-76 [1] | Single sc Dose PD50 (mg/kg) ± 95% Confidence Limits Staphylococcus aureus UC-76 [1] | Single po Dose PD50 (mg/kg) ± 95% Confidence Limits Escherichia coli Vogel ([2]; compound B series) | Single sc Dose PD50 (mg/kg) ± 95% Confidence Limits Escherichia coli Vogel ([2]; compound B series) | MIC µg/ml Pseudo. aeruginosa UI-18 ([3]; based on content of compound B) | MIC µg/ml Strep. faecalis MGH-2 ([4]; based on content of compound B) | MIC µg/ml Entero cloacae MA 2646 ([5]; based on content of compound B) | MIC µg/ml Proteus retgeri M 1771 ([6]; based on content of compound B) | MIC µg/ml Strep. pyogenes C-203 ([7]; based on content of compound B) | MIC µg/ml Strep. pneumoniae SV-1 ([8]; based on content of compound B) | MIC µg/ml Staph. aureus H 228 ([9]; based on content of compound B) | MIC µg/ml Staph. aureus UC-76 ([10]; based on content of compound B) | MIC µg/ml Klebs. pneumoniae MGH-2 ([11]; based on content of compound B) | MIC µg/ml E. coli Vogel ([12]; based on content of compound B) | Single sc Dose PD50 (mg/kg) ± 95% Confidence Limits Klebsiella pneumoniae MGH-2 ([13]; compound B series) | MIC µg/ml Pseudo. aeruginosa UI-18 ([3]; based on content of compound A) | MIC µg/ml Strep. faecalis MGH-2 ([4]; based on content of compound A) | MIC µg/ml Entero cloacae MA 2646 ([5]; based on content of compound A) | MIC µg/ml Proteus retgeri M 1771 ([6]; based on content of compound A) | MIC µg/ml Strep. pyogenes C-203 ([7]; based on content of compound A) | further results |
| --- | --- | --- | --- | --- | --- | --- | --- | --- | --- | --- | --- | --- | --- | --- | --- | --- | --- | --- | --- | --- | --- |
| CCn1cc(C(=O)O)c(=O)c2cc(F)c(N3CCNCC3)nc21 [B Glutamate] | 12.0 ± 3.0 mg/kg | 2.8 ± 1.0 mg/kg | 2.9 ± 1.0 mg/kg | 1.6 ± 0.6 mg/kg | 0.2 µg/mL (≈ 0.624 µM) | 3.1 µg/mL (≈ 9.68 µM) | 0.2 µg/mL (≈ 0.624 µM) | 0.1 µg/mL (≈ 0.312 µM) | 6.3 µg/mL (≈ 19.7 µM) | 3.1 µg/mL (≈ 9.68 µM) | 1.6 µg/mL (≈ 4.99 µM) | <0.1 µg/mL | 0.2 µg/mL (≈ 0.624 µM) | <0.1 µg/mL | 1.9 ± 0.9 mg/kg | – | – | – | – | – | – |
| CCn1cc(C(=O)O)c(=O)c2cc(F)c(N3CCNCC3)cc21 [A Galacturo-nate] | – | – | – | – | – | – | – | – | – | – | – | – | – | – | – | 0.1 µg/mL (≈ 0.313 µM) | 1.6 µg/mL (≈ 5.01 µM) | 0.1 µg/mL (≈ 0.313 µM) | <0.1 µg/mL | 0.8 µg/mL (≈ 2.51 µM) | MIC µg/ml Strep. pneumoniae SV-1 ([8]; based on content of compound A): 1.6 µg/mL (≈ 5.01 µM); MIC µg/ml Staph. aureus H 228 ([9]; based on content of compound A): 0.8 µg/mL (≈ 2.51 µM); MIC µg/ml Staph. aureus UC-76 ([10]; based on content of compound A): <0.1 µg/mL; MIC µg/ml Klebs. pneumoniae MGH-2 ([11]; based on content of compound A): 0.1 µg/mL (≈ 0.313 µM); MIC µg/ml E. coli Vogel ([12]; based on content of compound A): <0.1 µg/mL |
| CCn1cc(C(=O)O)c(=O)c2cc(F)c(N3CCNCC3)nc21 [B acetate] | – | – | – | – | – | – | – | – | – | – | – | – | – | – | – | – | – | – | – | – | lyophilization [14]: cannot be successfully lyophilized |
| CCn1cc(C(=O)O)c(=O)c2cc(F)c(N3CCNCC3)nc21 [B Aspartate] | 13 ± 3.0 mg/kg | 4.3 ± 1.4 mg/kg | 2.9 ± 1.0 mg/kg | 1.3 ± 0.4 mg/kg | 0.4 µg/mL (≈ 1.25 µM) | 3.1 µg/mL (≈ 9.68 µM) | 0.2 µg/mL (≈ 0.624 µM) | <0.1 µg/mL | 6.3 µg/mL (≈ 19.7 µM) | 3.1 µg/mL (≈ 9.68 µM) | 3.1 µg/mL (≈ 9.68 µM) | 0.1 µg/mL (≈ 0.312 µM) | 0.1 µg/mL (≈ 0.312 µM) | <0.1 µg/mL | 1.6 ± 0.6 mg/kg | – | – | – | – | – | – |
| CCn1cc(C(=O)O)c(=O)c2cc(F)c(N3CCNCC3)cc21 [A Gluconate] | – | – | – | – | – | – | – | – | – | – | – | – | – | – | – | 0.2 µg/mL | 0.8 µg/mL | 0.2 µg/mL | <0.1 µg/mL | 0.8 µg/mL | Single po Dose PD50 (mg/kg) ± 95% Confidence Limits Escherichia coli Vogel ([2]; compound A series): 3.9 ± 0.9 mg/kg; Single sc Dose PD50 (mg/kg) ± 95% Confidence Limits Escherichia coli Vogel ([2]; compound A series): 0.5 ± 0.1 mg/kg; MIC µg/ml Strep. pneumoniae SV-1 ([8]; based on content of compound A): 1.6 µg/mL; MIC µg/ml Staph. aureus H 228 ([9]; based on content of compound A): 1.6 µg/mL; MIC µg/ml Staph. aureus UC-76 ([10]; based on content of compound A): 0.2 µg/mL; MIC µg/ml Klebs. pneumoniae MGH-2 ([11]; based on content of compound A): 0.2 µg/mL; MIC µg/ml E. coli Vogel ([12]; based on content of compound A): <0.1 µg/mL; Single po Dose PD50 (mg/kg) ± 95% Confidence Limits Klebsiella pneumoniae MGH-2 ([13]; oral, compound A series): 13 ± 6 mg/kg; Single sc Dose PD50 (mg/kg) ± 95% Confidence Limits Klebsiella pneumoniae MGH-2 ([13]; compound A series): 1.4 ± 0.3 mg/kg |
| CCn1cc(C(=O)O)c(=O)c2cc(F)c(N3CCNCC3)nc21 [B Gluconate] | – | – | 2.9 ± 0.7 mg/kg | 1.1 ± 0.4 mg/kg | 0.8 µg/mL | 3.1 µg/mL | 0.4 µg/mL | 0.2 µg/mL | 3.1 µg/mL | 3.1 µg/mL | 1.6 µg/mL | 0.4 µg/mL | 0.2 µg/mL | 0.1 µg/mL | 5.2 ± 1.5 mg/kg | – | – | – | – | – | – |
